Assay results: patent publication US7553864B2, “Compounds for the treatment of inflammatory disorders and microbial diseases” (Schering Corporation, priority 2005, dated 2009)

Tested on: LpxC enzyme
Test: LpxC enzyme assay (RapidFire high-throughput mass spectrometry)
Assay type: biochemical
In short: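 0.2 nM enzyme with 1.0 μM UDP-3-O-(R-3-hydroxymyristoyl)-N-acetylglucosamine in 25 mM HEPES pH 7.3, 150 mM NaCl, 2.0 mM DTT, 0.01% BSA, 2% DMSO; 60 min at room temperature, quenched with HCl. Substrate and product quantified by RapidFire mass spectrometry; percent conversion gives percent inhibition versus DMSO control.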

[1] = concentration 0.10 (unit not given)
[2] = concentration 0.20 (unit not given)
[3] = concentration 0.39 (unit not given)
[4] = concentration 0.78 (unit not given)
[5] = concentration 1.56 (unit not given)
[6] = concentration 3.13 (unit not given)
[7] = concentration 6.25 (unit not given)
[8] = concentration 12.50 (unit not given)
[9] = concentration 25 (unit not given)
[10] = concentration 50 (unit not given)

Structure (SMILES) | LpxC enzyme assay rating (% inhibition at indicated concentrations) [1] | LpxC enzyme assay rating (% inhibition at indicated concentrations) [2] | LpxC enzyme assay rating (% inhibition at indicated concentrations) [3] | LpxC enzyme assay rating (% inhibition at indicated concentrations) [4] | LpxC enzyme assay rating (% inhibition at indicated concentrations) [5] | LpxC enzyme assay rating (% inhibition at indicated concentrations) [6] | LpxC enzyme assay rating (% inhibition at indicated concentrations) [7] | LpxC enzyme assay rating (% inhibition at indicated concentrations) [8] | LpxC enzyme assay rating (% inhibition at indicated concentrations) [9] | LpxC enzyme assay rating (% inhibition at indicated concentrations) [10]
CCCCc1ccc(NC(=O)[C@H](O)[C@@H](O)C(=O)NC)cc1 [Compound 32] | B (10-30% inhibition) | B (10-30% inhibition) | B (10-30% inhibition) | B (10-30% inhibition) | C (less than 10% inhibition) | B (10-30% inhibition) | C (less than 10% inhibition) | B (10-30% inhibition) | B (10-30% inhibition) | B (10-30% inhibition)
CN(C)CCCOc1ccc(NC(=O)[C@H](O)[C@@H](O)C(=O)N(C)C)cc1 [Compound 57] | B (10-30% inhibition) | C (less than 10% inhibition) | B (10-30% inhibition) | C (less than 10% inhibition) | C (less than 10% inhibition) | C (less than 10% inhibition) | C (less than 10% inhibition) | C (less than 10% inhibition) | B (10-30% inhibition) | C (less than 10% inhibition)
CNC(=O)[C@H](O)[C@@H](O)C(=O)N1CCN(c2cccc3ccccc23)CC1 [Compound 29] | C (less than 10% inhibition) | C (less than 10% inhibition) | C (less than 10% inhibition) | C (less than 10% inhibition) | B (10-30% inhibition) | B (10-30% inhibition) | B (10-30% inhibition) | B (10-30% inhibition) | B (10-30% inhibition) | B (10-30% inhibition)
C[C@@H](O)[C@H](NC(=O)[C@H](O)[C@@H](O)C(=O)N(C)C)C(=O)Nc1ccc(C#Cc2ccccc2)cc1 [Compound 78] | C (less than 10% inhibition) | C (less than 10% inhibition) | B (10-30% inhibition) | C (less than 10% inhibition) | C (less than 10% inhibition) | B (10-30% inhibition) | B (10-30% inhibition) | B (10-30% inhibition) | A (greater than 30% inhibition) | 
CN(C)C(=O)[C@H](O)[C@@H](O)C(=O)N(C)c1ccccc1C#Cc1ccccc1 [Compound 103] | C (less than 10% inhibition) | C (less than 10% inhibition) | B (10-30% inhibition) | B (10-30% inhibition) | B (10-30% inhibition) | B (10-30% inhibition) | C (less than 10% inhibition) | B (10-30% inhibition) | C (less than 10% inhibition) | 
CCCCc1ccc(NC(=O)[C@H](O)[C@@H](O)C(=O)N(C)C)cc1 [Compound 48] | B (10-30% inhibition) | C (less than 10% inhibition) | C (less than 10% inhibition) | C (less than 10% inhibition) | C (less than 10% inhibition) | B (10-30% inhibition) | C (less than 10% inhibition) | B (10-30% inhibition) | C (less than 10% inhibition) | B (10-30% inhibition)
CNC(=O)[C@H](O)[C@@H](O)C(=O)Nc1ccc(-n2cccn2)cc1 [Compound 41] | C (less than 10% inhibition) | C (less than 10% inhibition) | C (less than 10% inhibition) | C (less than 10% inhibition) | B (10-30% inhibition) | B (10-30% inhibition) | B (10-30% inhibition) | C (less than 10% inhibition) | B (10-30% inhibition) | B (10-30% inhibition)
CNC(=O)[C@H](O)[C@@H](O)C(=O)Nc1ccc(C#Cc2ccccc2)cc1 [Compound 25] | C (less than 10% inhibition) | C (less than 10% inhibition) | C (less than 10% inhibition) | C (less than 10% inhibition) | C (less than 10% inhibition) | C (less than 10% inhibition) | C (less than 10% inhibition) | B (10-30% inhibition) | C (less than 10% inhibition) | C (less than 10% inhibition)
